Here are results for ten compounds from US5674905A, “Bicyclooctane and bicycloheptane derivatives” (James Black Foundation Limited, priority 1992, dated 1997).

One assay concerns the target T1, CCKB receptor (Mus musculus, UniProt P56481).
T1 construct: The cortex was dissected, weighed and homogenised in 40 ml ice-cold buffer; from tissue; host or cells: cerebral cortex membranes of male CD1 mice (Charles River)
T1 sequence (P56481 1-453): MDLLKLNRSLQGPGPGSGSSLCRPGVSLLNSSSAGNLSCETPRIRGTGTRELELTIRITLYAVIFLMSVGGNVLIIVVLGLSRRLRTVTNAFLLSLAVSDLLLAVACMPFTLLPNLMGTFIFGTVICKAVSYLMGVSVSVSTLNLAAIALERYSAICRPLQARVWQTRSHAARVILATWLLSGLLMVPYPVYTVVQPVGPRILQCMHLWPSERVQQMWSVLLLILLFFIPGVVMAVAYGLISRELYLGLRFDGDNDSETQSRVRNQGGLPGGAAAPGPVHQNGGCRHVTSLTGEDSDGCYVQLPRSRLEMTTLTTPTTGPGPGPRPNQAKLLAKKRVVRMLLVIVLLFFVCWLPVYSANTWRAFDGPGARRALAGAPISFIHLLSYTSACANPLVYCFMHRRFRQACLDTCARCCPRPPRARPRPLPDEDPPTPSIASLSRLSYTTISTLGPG
Nature of the assay: radioligand binding assay at the CCKB receptor in mouse cortical membranes ([125I]-CCK8S). To be noted: 150 min at 21±3°; for Ki: read-out: CCKB pKi (converted). Put shortly:
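Competition binding on cortical membranes from male CD1 mice in pH 7.2 HEPES buffer with bacitracin, using [125I]-CCK8S (200 pM) and test compound, 150 min at 21±3°. Non-specific binding defined with L-365,260 ([…]). Bound radioactivity collected by filtration and gamma-counted.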

Another assay has as its target T2, CCKA (Cavia porcellus, UniProt Q63931).
T2 construct: The pancreatata were removed from male guinea-pigs (200-300 g; Dunkin Hartley); from tissue; host or cells: pancreas membranes of male Dunkin Hartley guinea-pigs
T2 sequence (Q63931 1-430): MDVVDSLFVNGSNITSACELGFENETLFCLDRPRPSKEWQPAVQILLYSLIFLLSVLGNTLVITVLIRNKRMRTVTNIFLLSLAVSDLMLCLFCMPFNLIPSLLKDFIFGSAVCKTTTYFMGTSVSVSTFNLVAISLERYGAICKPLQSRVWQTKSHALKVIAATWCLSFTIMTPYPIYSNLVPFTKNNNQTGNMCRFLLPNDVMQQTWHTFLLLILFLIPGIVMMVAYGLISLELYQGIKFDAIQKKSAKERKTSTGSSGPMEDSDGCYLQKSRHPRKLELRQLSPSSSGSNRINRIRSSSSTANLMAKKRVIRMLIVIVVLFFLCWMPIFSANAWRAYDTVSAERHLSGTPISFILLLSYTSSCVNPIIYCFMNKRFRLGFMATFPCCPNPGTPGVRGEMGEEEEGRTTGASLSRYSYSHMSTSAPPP
Kind of assay: CCKA binding assay in guinea-pig pancreas membranes ([125I]-CCK8(S)). To be noted: 150 minutes at 21±3°; for Ki: 0.375 μM PD134,308, read-out: CCKA pKi (converted); for CCKA pKi: 0.375 μM PD134,308. The procedure: The compounds of the examples were also tested in a CCKA binding assay as follows:
The pancreatata were removed from male guinea-pigs (200-300 g; Dunkin Hartley) and placed in ice-cold HEPES buffer (pH 7.2 @ 21±3°). The pancreatata were homogenised in 40 ml ice-cold HEPES buffer using a polytron (Brinkmann, PT10, setting 10) 4×1 second. The homogenate was centrifuged at 39,800 g for 15 min at 4°. The supernatant was discarded and the pellet re-suspended using a Teflon-in-glass homogeniser in 20 volumes of fresh buffer and re-centrifuged as above. The final pellet was re-suspended using a Teflon-in-glass homogeniser to a tissue concentration of 1 mg.ml^-1 (original wet weight), and filtered through 500 μm pore-size Nytex mesh.
The membranes (400 μl; containing 0.375 μM PD134,308) are incubated for 150 minutes at 21±3° in a final volume of 0.5 ml with HEPES buffer containing [^125 I]-CCK8 (S)(50 μl; pM) and competing compound. Total and non-specific binding of [^125 I]-CCK8 (S) are defined using 50 μl of buffer and 50 μl of 100 nM L-364,718 respectively. The assay is terminated by rapid filtration through pre-soaked Whatman GF/B filters using a Brandell Cell Harvester. The filters were washed (3×3 ml) with ice-cold 50 mM Tris HCl (pH 7.4 at 4°) and bound radioactivity is determined by counting (1 min) in a gamma counter.

The target of a further assay is T3, gastrin receptors (Rattus norvegicus, UniProt P30553).
T3 construct: from tissue; host or cells: isolated perfused whole stomach of immature rats (33-50 g, ca. 21 days old)
T3 sequence (P30553 1-452): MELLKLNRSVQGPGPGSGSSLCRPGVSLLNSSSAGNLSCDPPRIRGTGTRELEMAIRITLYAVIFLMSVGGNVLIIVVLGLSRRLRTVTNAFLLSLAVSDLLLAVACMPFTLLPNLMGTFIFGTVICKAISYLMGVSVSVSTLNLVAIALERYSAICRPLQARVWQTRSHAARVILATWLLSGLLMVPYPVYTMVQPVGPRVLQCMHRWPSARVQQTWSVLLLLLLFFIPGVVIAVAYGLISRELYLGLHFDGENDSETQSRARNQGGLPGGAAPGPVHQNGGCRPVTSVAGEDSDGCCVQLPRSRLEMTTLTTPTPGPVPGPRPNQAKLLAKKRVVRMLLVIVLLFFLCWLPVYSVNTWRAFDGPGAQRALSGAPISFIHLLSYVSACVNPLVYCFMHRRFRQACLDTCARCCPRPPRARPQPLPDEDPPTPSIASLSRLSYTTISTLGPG
Kind of assay: gastrin antagonist activity in an immature rat stomach assay (pentagastrin-stimulated acid secretion). The note with it: isolated immature rat stomach, cumulative pentagastrin dose-response curves; for Kb: read-out: Gastrin pKB (converted). The procedure: The compounds of the examples were also tested for gastrin antagonist activity in an immature rat stomach assay. The procedure was as follows:
The oesophagus of immature rats (33-50 g, ca. 21 days old) was ligated at the level of the cardiac sphincter and the duodenal sphincter was cannulated. The stomach was excised and flushed with ca. 1 ml of unbuffered physiological saline solution. The fundus was punctured and cannulated. A further 4-5 ml of unbuffered solution was flushed through the stomach to ensure the preparation was not leaking. The stomach was lowered into a jacketed organ bath containing 40 ml of buffered solution containing 3×10^-8 M 5-methyl-furmethide, maintained at 37° and gassed vigorously with 95% O2 /5% CO2. The stomach was continuously perfused at a rate of 1 ml min^-1 with unbuffered solution gassed with 100% O2 with the perfusate passing over an internally referenced pH-electrode fixed 12 cm above the stomach.
After 120 min of stabilisation the drugs were added directly to the serosal solution in the organ bath and after a further 60 min cumulative pentagastrin dose-response curves were started. Changes in acid secretion were monitored and the curves analysed according to Black et. al., Br. J. Pharmacol., 1985, 86, 581.

As to `C[C@@H](NC(=O)[C@H]1CCCN1C(=O)C1C2CCC(c3ccccc32)C1C(=O)NCC12CC3CC(CC(C3)C1)C2)C(=O)O` (stereo partly drawn) [Example 41, cis-exo-7-(2R-(1R-carboxyethylaminocarbonyl)-pyrrolidinocarbonyl)-8-(1-adamantylmethylaminocarbonyl)-2,3-benzobicyclo[2.2.2]octane], the Ki on CCKB receptor is 5.01 µM; on CCKA, 7.94 µM.

Regarding “exo-cis-7-(2-R-(3-indolyl)-1-carboxy-ethylaminocarbonyl)-8-(1-adamantylmethylaminocarbonyl)-5,6-benzobicyclo[2.2.2]oct-2-ene [Example 17]”, the “CCKB pKi” value on CCKB receptor was determined as 6.8. Further, the “Gastrin pKB” value at gastrin receptors (60 min) was 6.2. Besides, the “CCKA pKi” value at CCKA is reported as 6.3.

On to “endo-cis-7-(2-R-carboxy-pyrrolidinocarbonyl)-8-(1-adamantylmethylaminocarbonyl)-2-oxo-5,6-benzobicyclo[2.2.2]octane [Example 35]”, for which the “CCKB pKi” value at CCKB receptor is 5.0. Moreover, the “CCKA pKi” value on CCKA was determined as 4.8.

With `C[C@H](NC(=O)[C@@H]1CCCN1C(=O)C1C2CCC(c3ccccc32)C1C(=O)NCC12CC3CC(CC(C3)C1)C2)C(=O)O` (stereo partly drawn) [Example 43, cis-exo-7-(2S-(1S-carboxyethylaminocarbonyl)-pyrrolidinocarbonyl)-8-(1-adamantylmethylaminocarbonyl)-2,3-benzobicyclo[2.2.2]octane], the Ki at CCKB receptor was 2 µM; at CCKA, 10 µM.

`O=C(O)CNC(=O)[C@H]1CCCN1C(=O)C1C2CCC(c3ccccc32)C1C(=O)NCC12CC3CC(CC(C3)C1)C2` (stereo partly drawn) [Example 42, cis-exo-7-(2R-carboxymethylaminocarbonyl-pyrrolidinocarbonyl)-8-(1-adamantylmethylaminocarbonyl)-2,3-benzobicyclo[2.2.2]octane]: the Ki is 3.98 µM at CCKB receptor and 6.31 µM at CCKA.

On to `O=C(NCC12CC3CC(CC(C3)C1)C2)C1C2C=CC(c3ccccc32)C1C(=O)N[C@H](Cc1c[nH]c2ccccc12)C(=O)O` (single isomer, unassigned) [Example 18, exo-cis-7-(2-R-(3-indolyl)-1-carboxy-ethylaminocarbonyl)-8-(1-adamantylmethylaminocarbonyl)-5,6-benzobicyclo[2.2.2]oct-2-ene], for which the figures for the Ki on CCKB receptor and on CCKA were 0.794 µM and 1 µM, respectively. In addition, at gastrin receptors, the Kb is 1 µM.

As for “(±)-endo-cis-8-(1-adamantylmethylaminocarbonyl)-2-(±)-benzyl-5,6-benzobicyclo[2.2.2]octane-7-carboxylic acid [Example 36]”, at CCKB receptor, the “CCKB pKi” value was found to be 5.8. Further, at CCKA, the “CCKA pKi” value stood at 5.4.

For the compound `O=C1CC2c3ccccc3C1C(C(=O)N1CCC[C@@H]1C(=O)O)C2C(=O)NCC12CC3CC(CC(C3)C1)C2` (single isomer, unassigned) [Example 34, endo-cis-7-(2-R-carboxy-pyrrolidinocarbonyl)-8-(1-adamantylmethylaminocarbonyl)-2-oxo-5,6-benzobicyclo[2.2.2]octane], the Ki on CCKB receptor is 6.31 µM; on CCKA, 7.94 µM.

For the compound `O=C(O)CNC(=O)[C@H]1CCCN1C(=O)C1C2c3ccccc3C(c3cc4ccccc4cc32)C1C(=O)NCC12CC3CC(CC(C3)C1)C2` (single isomer, unassigned) [Example 37, cis-7-(2R-carboxymethylaminocarbonyl-pyrrolidinocarbonyl)-8-(1-adamantylmethylaminocarbonyl)-2,3-benzo-5,6-(2,3-naphtho)bicyclo[2.2.2]octane], the Ki was 0.158 µM at CCKB receptor and 3.16 µM at CCKA. At gastrin receptors, the Kb was 0.501 µM.

Regarding `O=C(O)CNC(=O)[C@H]1CCCN1C(=O)C1C2c3ccccc3C(c3cc4ccccc4cc32)C1C(=O)NCC12CC3CC(CC(C3)C1)C2` (single isomer, unassigned) [Example 38, cis-7-(2R-carboxymethylaminocarbonyl-pyrrolidinocarbonyl)-8-(1-adamantylmethylaminocarbonyl)-2,3-benzo-5,6-(2,3-naphtho)bicyclo[2.2.2]octane], the Ki on CCKB receptor was 0.251 µM; on CCKA, 7.94 µM. In addition, at gastrin receptors, the Kb is 0.631 µM.
